“And” between values parts separate entries of the source, which are not always exact repeats. Equal values may be shown once. Read-outs that look alike come from different tables or passages of the source.
Experiments:
[1] = oral toxicity (LD50) in mice; conditions: mouse, in vivo, read-out: LD50 orally in mice
[2] = clinical theophylline blood level on 4th day, theophylline alone or with idrocilamide (Tables 3 and 4); conditions: inferred from clinical blood levels
Protocol: A series of comparative clinical tests were conducted. Five male adults asthma patients took a simultaneous dose of 200 mg theophylline and 100 mg idocrilamide twice a day orally, at 0800 and 2000 hours. On the 4th day, after establishment of a state of equilibrium, the theophylline blood level in the patients under treatment was determined at various times. The determinations were made by highpressure liquid chromatography (Waters apparatus, Lichrosorb RP 18 adsorbent of Merck, methanol, formamide, monopotassium phosphate solvent. Detection by UV spectrophotometry).
The time in hours (t) after the morning dose is plotted on the x-axis, the time 0 corresponding to the dose of medicine on the 4th day. The theophylline blood concentrations in mg/l (th mg/l) are plotted on the y-axis.

cyclic AMP = conditions: cited from earlier work
phosphodiesterase = conditions: cited from earlier work
[3] = cited from earlier work
pulmonary vital capacity = conditions: digestive disorders, nervous troubles, cardiac troubles, neurological symptoms; cited from earlier work
bronchial smooth muscles = conditions: cited from earlier work
mastocytes = conditions: hypersensitivity reactions; cited from earlier work
in vivo = conditions: rat, po, 15 mg/kg
Protocol: Groups of the so-treated animals were killed by carotid section 15', 30', 1 h, 2 h, 3 h, 4 h, 6 h, and 8 h after administration of the theophylline. The blood was collected in herparinized, centrifuged tubes, and the plasma was decanted. The theophylline blood level was determined in plasma samples after extraction by liquid chromatography.

[4] = cited from earlier work; remark: listed apart in the source

O=C(C=Cc1ccc(F)cc1)NCCO [Compound V, N-(2-hydroxyethyl)-4-fluorocinnamamide]
LD50 [1]: > 3200 mg/kg

O=C(C=Cc1ccccc1)NCCO [Compound I, N-(2-hydroxyethyl)cinnamamide]
LD50 [1]: 3000 mg/kg | action mechanism on theophylline metabolism [2]: interference of idrocilamide on the metabolism of theophylline

CC1(C)OCCN1C(=O)C=Cc1ccccc1 [Compound IX, 3-cinnamoyl-2,2-dimethyloxazolidine]
LD50 [1]: > 3200 mg/kg

CC(CO)NC(=O)C=Cc1ccccc1 (stereo not shown) [Compound IV, N-[2-(1-hydroxypropyl)]cinnamamide]
LD50 [1]: 3200 mg/kg

CC1(C)OCCN1C(=O)C=Cc1ccc(Cl)cc1 [Compound VII, 3-(4-chlorocinnamoyl)-2,2-dimethylloxazolidine]
LD50 [1]: > 3200 mg/kg

Cn1c(=O)c2[nH]cnc2n(C)c1=O [theophylline, 1,3-dimethylxanthine]
tissue increase of cyclic AMP (cyclic AMP): tissue increase of cyclic AMP | inhibition of phosphodiesterase (phosphodiesterase): competitive inhibition | metabolism ([3]; in vivo): metabolized at the hepatic level to give inactive metabolites eliminated by the kidneys | half-life ([3]; normal adult): ~6 h and 4 h | oral absorption [3]: very good | oral absorption ([3]; listed as Theophylline): absorbed very well orally | rectal absorption ([3]; rectal): very irregular | concentration above which intolerance signs can appear (pulmonary vital capacity): > 20000 ng/mL | effect of intrapulmonary administration by aerosol (bronchial smooth muscles; aerosol): ineffective | bronchodilating action (bronchial smooth muscles): active toward all bronchoconstrictive agents | inhibiting action on mastocytes (mastocytes): partially inhibiting their degranulation | AUC at 8 h (in vivo): 95.1 µg·h/mL | AUC(0-inf) (in vivo): 117 µg·h/mL | Cmax (in vivo): 20300 ng/mL | concentration at 0.25 h (in vivo): 17500 ng/mL | concentration at 0.5 h (in vivo): 20300 ng/mL | concentration at 1 h (in vivo): 18900 ng/mL | concentration at 2 h (in vivo): 16700 ng/mL | concentration at 3 h (in vivo): 13900 ng/mL | concentration at 4 h (in vivo): 12000 ng/mL | concentration at 6 h (in vivo): 8040 ng/mL | concentration at 8 h (in vivo): 4320 ng/mL | half-life (in vivo): 3.47 h | solubility in water [4]: slightly soluble in water

CN(CCO)C(=O)C=Cc1ccccc1 [Compound III, N-methyl, N-(2-hydroxyethyl)cinnamamide]
LD50 [1]: 3000 mg/kg

O=C(C=Cc1ccc(Cl)cc1)NCCO [Compound II, N-(2-hydroxyethyl)-4-chlorocinnamamide]
LD50 [1]: 1600 mg/kg

CC(=O)c1ccc(C=CC(=O)NCCO)cc1 [Compound VI, N-(2-hydroxyethyl)-4-acetylcinnamamide]
LD50 [1]: 3200 mg/kg

CC1(C)OCCN1C(=O)C=Cc1ccc(F)cc1 [Compound VIII, 2,2-dimethyl-3-(4-fluorocinnamoyl) oxazolidine]
LD50 [1]: 2000 mg/kg

— US4512994A, “Long-acting theophylline in medicinal form” (priority 1982, dated 1985)
